One block for each molecule: values may come before it. Numbered stars: 1 amine (or outer) side, 2 acyl side, 3 side chain; on linkers, the order of the positions; unused ones are H or OH. Bridge positions count the residues as written; N and C are the ends. Square brackets hold non-standard residues; d marks the D form. Peptide text beside a SMILES is read from it. * marks the point of attachment. 2Thenoyl(5-Cl) = O=C(c1ccc(Cl)s1)*; Benzoyl(4-Cl) = O=C(c1ccc(Cl)cc1)*; Cyclohexylacetyl = O=C(CC1CCCCC1)*; Pyrazinecarbonyl = O=C(c1cnccn1)*; Cysteamide = C(CS[*:3])N[*:1]; X13 = O=C(c1ccc2[nH]cnc2c1)*; X1 = O=C(/C=C/c1ccccc1)*; X16 = Cc1cc(C(=O)*)ccc1O; 2Furoyl = O=C(c1ccco1)*; Api = NC1(C(=O)O)CCNCC1; Dap = NC[C@H](N)C(=O)O; Mpa = O=C(O)CCS
Target: MDM2 (Homo sapiens, UniProt Q00987)
Sequence (Q00987 whole entry): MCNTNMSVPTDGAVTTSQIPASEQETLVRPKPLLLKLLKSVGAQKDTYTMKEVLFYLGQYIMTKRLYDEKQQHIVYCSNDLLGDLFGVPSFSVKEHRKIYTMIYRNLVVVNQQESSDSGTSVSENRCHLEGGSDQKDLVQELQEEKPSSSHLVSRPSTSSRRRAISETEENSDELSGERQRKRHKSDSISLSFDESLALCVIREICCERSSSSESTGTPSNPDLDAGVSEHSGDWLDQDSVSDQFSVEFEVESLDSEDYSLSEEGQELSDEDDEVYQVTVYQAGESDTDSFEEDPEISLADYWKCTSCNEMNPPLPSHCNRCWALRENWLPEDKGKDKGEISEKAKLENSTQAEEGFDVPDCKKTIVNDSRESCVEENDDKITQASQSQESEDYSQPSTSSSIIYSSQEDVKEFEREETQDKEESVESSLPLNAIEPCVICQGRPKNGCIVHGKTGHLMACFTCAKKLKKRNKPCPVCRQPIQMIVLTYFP
Test: MDM2 binding screen: displacement of fluorescent p53 peptide probe FP53 (fluorescence polarization)
Details: for fraction fluorescent probe displaced, Screen: initial screen; for fraction fluorescent probe displaced, Screen / fraction fluorescent probe displaced, Replicate: crude macrocycle reactions
Summary of the method: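 Macrocycle reaction products at a final 10 µM were tested for displacement of a p53-based fluorescent peptide from human MDM2. Fluorescence anisotropy (ex 485/em 535 nm) was read once per macrocycle at 25 °C.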

[1] = 10 µM macrocycle concentration, crude acylated macrocycle (scaffold Mpa-AA1-AA2-AA3 x carboxylic acid), p53-based fluorescent peptide, human MDM2

- fraction fluorescent probe displaced, Screen (Acid 91): 0.16
- fraction fluorescent probe displaced, Replicate (Acid 91, replicate): 0.09
SMILES: O=C(C=Cc1ccccc1)NC1CC2C(=O)N3CCCC(C3)C(=O)NCCSSCCC(=O)NC(Cc3c[nH]c4ccccc34)C(=O)N2C1 (stereo not drawn) [X W D5 B4 Acid 91]

- fraction fluorescent probe displaced, Screen (Acid 91): 0.30
- fraction fluorescent probe displaced, Replicate (Acid 91, replicate): 0.22
SMILES: O=C(C=Cc1ccccc1)NC1CC2C(=O)NCCSSCCC(=O)NC(Cc3c[nH]c4ccccc34)C(=O)N3CCCC(C3)C(=O)N2C1 (stereo not drawn) [X W B4 D5 Acid 91]

- fraction fluorescent probe displaced, Screen (Acid 91): 0.0563
- fraction fluorescent probe displaced, Replicate (Acid 91, replicate): -0.00827
SMILES: O=C1CCSSCCNC(=O)C2(CCN(C(=O)C=Cc3ccccc3)CC2)NC(=O)CCNC(=O)C(Cc2ccccc2)N1 (stereo not drawn) [X F B2 D6 Acid 91]

- fraction fluorescent probe displaced [1]: 0.08563
SMILES: Cc1cc(C(=O)NC[C@@H]2NC(=O)[C@@H]3CCCN3C(=O)CCSSCCNC(=O)[C@H](Cc3c[nH]c4ccccc34)NC2=O)ccc1O [X-B1-D3-W + A30] ([Mpa]P[Dap](X16)W-Cysteamide; disulfide 1-C)

- fraction fluorescent probe displaced, Screen (Acid 14): 0.23
- fraction fluorescent probe displaced, Replicate (Acid 14, replicate): 0.20
SMILES: O=C1CCNC(=O)[C@H](Cc2c[nH]c3ccccc23)NC(=O)[C@H](CNC(=O)c2ccc(Cl)s2)NC(=O)CCSSCCN1 [X D3 W B2 Acid 14]

- fraction fluorescent probe displaced, Screen (Acid 25): 0.0569
- fraction fluorescent probe displaced, Replicate (Acid 25, replicate): 0.0465
SMILES: O=C1NCCSSCCC(=O)N2C[C@@H](NC(=O)c3ccc(Cl)cc3)C[C@H]2C(=O)N[C@@H](Cc2ccccc2)C(=O)NCc2cccc1c2 [X D5 F B5 Acid 25]

- fraction fluorescent probe displaced, Screen (Acid 91): 0.0563
- fraction fluorescent probe displaced, Replicate (Acid 91, replicate): 0.17
SMILES: O=C(/C=C/c1ccccc1)NC[C@@H]1NC(=O)[C@H](Cc2c[nH]c3ccccc23)NC(=O)CCSSCCNC(=O)c2cccc(c2)CNC1=O [X W D3 B5 Acid 91]

- fraction fluorescent probe displaced, Screen (Acid 25): 0.25
- fraction fluorescent probe displaced, Replicate (Acid 25, replicate): 0.25
SMILES: O=C(NC[C@@H]1NC(=O)[C@H](Cc2c[nH]c3ccccc23)NC(=O)[C@@H]2CCCN2C(=O)CCSSCCNC1=O)c1ccc(Cl)cc1 [X B1 W D3 Acid 25] ([Mpa]PW[Dap](Benzoyl(4-Cl))-Cysteamide; disulfide 1-C)

- fraction fluorescent probe displaced, Screen (Acid 91): -0.05
- fraction fluorescent probe displaced, Replicate (Acid 91, replicate): 0.0168
SMILES: O=C(/C=C/c1ccccc1)NC[C@@H]1NC(=O)c2cccc(c2)CNC(=O)CCSSCCNC(=O)[C@H](Cc2ccccc2)NC1=O [X B5 D3 F Acid 91]

- fraction fluorescent probe displaced, Screen (Acid 14): 0.23
- fraction fluorescent probe displaced, Replicate (Acid 14, replicate): 0.35
SMILES: O=C1CCNC(=O)[C@H](Cc2c[nH]c3ccccc23)NC(=O)CCSSCCNC(=O)[C@H](CNC(=O)c2ccc(Cl)s2)N1 [X W B2 D3 Acid 14]

- fraction fluorescent probe displaced, Screen (Acid 14): -0.06
- fraction fluorescent probe displaced, Replicate (Acid 14, replicate): 0.0211
SMILES: O=C(NC1CC2C(=O)N3CCCC(C3)C(=O)NC(Cc3ccccc3)C(=O)NCCSSCCC(=O)N2C1)c1ccc(Cl)s1 (stereo not drawn) [X D5 B4 F Acid 14]

- fraction fluorescent probe displaced, Screen (Acid 14): 0.0241
- fraction fluorescent probe displaced, Replicate (Acid 14, replicate): -0.00432
SMILES: O=C1CCSSCCNC(=O)[C@@H]2C[C@H](NC(=O)c3ccc(Cl)s3)CN2C(=O)[C@H](Cc2ccccc2)NC(=O)c2cccc(c2)CN1 [X B5 F D5 Acid 14]

- fraction fluorescent probe displaced, Screen (Acid 14): 0.11
- fraction fluorescent probe displaced, Replicate (Acid 14, replicate): 0.07
SMILES: O=C1CCSSCCNC(=O)[C@H](Cc2ccccc2)NC(=O)[C@@H]2CCCN2C(=O)[C@H](CNC(=O)c2ccc(Cl)s2)N1 [X D3 B1 F Acid 14] ([Mpa][Dap](2Thenoyl(5-Cl))PF-Cysteamide; disulfide 1-C)

- fraction fluorescent probe displaced, Screen (Acid 14): 0.20
- fraction fluorescent probe displaced, Replicate (Acid 14, replicate): 0.33
SMILES: O=C1CCSSCCNC(=O)C2(CCN(C(=O)c3ccc(Cl)s3)CC2)NC(=O)C(Cc2c[nH]c3ccccc23)NC(=O)c2cccc(c2)CN1 (stereo not drawn) [X B5 W D6 Acid 14]

- fraction fluorescent probe displaced, Screen (Acid 14): 0.0241
- fraction fluorescent probe displaced, Replicate (Acid 14, replicate): -0.03
SMILES: O=C1CCSSCCNC(=O)c2cccc(c2)CNC(=O)[C@H](CNC(=O)c2ccc(Cl)s2)NC(=O)[C@H](Cc2ccccc2)N1 [X F D3 B5 Acid 14]

- fraction fluorescent probe displaced, Screen (Acid 14): 0.053
- fraction fluorescent probe displaced, Replicate (Acid 14, replicate): 0.10
SMILES: O=C1CCSSCCNC(=O)[C@H]2CCCN(C2)C(=O)C2(CCN(C(=O)c3ccc(Cl)s3)CC2)NC(=O)[C@H](Cc2ccccc2)N1 [X F D6 B4 Acid 14]

- fraction fluorescent probe displaced, Screen (Acid 25): 0.13
- fraction fluorescent probe displaced, Replicate (Acid 25, replicate): 0.05
SMILES: O=C1CCSSCCNC(=O)C(Cc2ccccc2)NC(=O)C2CC(NC(=O)c3ccc(Cl)cc3)CN2C(=O)c2cccc(c2)CN1 (stereo not drawn) [X B5 D5 F Acid 25]

More lines, now with the values behind:

SMILES: O=C1CCSSCCNC(=O)[C@@H]2CCCN2C(=O)[C@H](Cc2c[nH]c3ccccc23)NC(=O)C2(CCN(C(=O)c3ccc(Cl)s3)CC2)N1 [X D6 W B1 Acid 14] ([Mpa][Api](2Thenoyl(5-Cl))WP-Cysteamide; disulfide 1-C)
- fraction fluorescent probe displaced, Screen (Acid 14): 0.11
- fraction fluorescent probe displaced, Replicate (Acid 14, replicate): 0.07

SMILES: O=C(/C=C/c1ccccc1)N[C@H]1C[C@H]2C(=O)N[C@@H](Cc3ccccc3)C(=O)NCc3cccc(c3)C(=O)NCCSSCCC(=O)N2C1 [X D5 F B5 Acid 91]
- fraction fluorescent probe displaced, Screen (Acid 91): -0.05
- fraction fluorescent probe displaced, Replicate (Acid 91, replicate): -0.00827

SMILES: O=C1CCSSCCNC(=O)C2(CCN(C(=O)c3ccc(Cl)cc3)CC2)NC(=O)c2cccc(c2)CNC(=O)[C@H](Cc2ccccc2)N1 [X F B5 D6 Acid 25]
- fraction fluorescent probe displaced, Screen (Acid 25): 0.0569
- fraction fluorescent probe displaced, Replicate (Acid 25, replicate): 0.0465

SMILES: O=C1NCCSSCCC(=O)N2CCN(C(=O)c3ccc(Cl)cc3)CC2C(=O)N2CCCC2C(=O)NC1Cc1ccccc1 (stereo not drawn) [X D7 B1 F Acid 25]
- fraction fluorescent probe displaced, Screen (Acid 25): 0.0569
- fraction fluorescent probe displaced, Replicate (Acid 25, replicate): 0.12

SMILES: O=C(/C=C/c1ccccc1)NC[C@@H]1NC(=O)CCSSCCNC(=O)[C@@H]2CCCN2C(=O)[C@H](Cc2ccccc2)NC1=O [X D3 F B1 Acid 91] ([Mpa][Dap](X1)FP-Cysteamide; disulfide 1-C)
- fraction fluorescent probe displaced, Screen (Acid 91): -0.05
- fraction fluorescent probe displaced, Replicate (Acid 91, replicate): -0.06

SMILES: O=C(C=Cc1ccccc1)NC1CC2C(=O)N3CCCC3C(=O)NCCSSCCC(=O)NC(Cc3c[nH]c4ccccc34)C(=O)N2C1 (stereo not drawn) [X W D5 B1 Acid 91]
- fraction fluorescent probe displaced, Screen (Acid 91): 0.08
- fraction fluorescent probe displaced, Replicate (Acid 91, replicate): 0.07

SMILES: O=C1CCSSCCNC(=O)C(Cc2ccccc2)NC(=O)C2CC(NC(=O)c3ccc(Cl)cc3)CN2C(=O)CCN1 (stereo not drawn) [X B2 D5 F Acid 25]
- fraction fluorescent probe displaced, Screen (Acid 25): 0.16
- fraction fluorescent probe displaced, Replicate (Acid 25, replicate): 0.05

SMILES: O=C(CC1CCCCC1)NC[C@@H]1NC(=O)[C@@H]2CCCN2C(=O)CCSSCCNC(=O)[C@H](Cc2ccccc2)NC1=O [X-B1-D3-F + A66] ([Mpa]P[Dap](Cyclohexylacetyl)F-Cysteamide; disulfide 1-C)
- fraction fluorescent probe displaced [1]: 0.03478

SMILES: O=C(NC[C@@H]1NC(=O)[C@@H]2CCCN2C(=O)CCSSCCNC(=O)[C@H](Cc2ccccc2)NC1=O)c1cnccn1 [X-B1-D3-F + A2] ([Mpa]P[Dap](Pyrazinecarbonyl)F-Cysteamide; disulfide 1-C)
- fraction fluorescent probe displaced [1]: 0.08617

SMILES: O=C(C=Cc1ccccc1)NC1CC2C(=O)NCCSSCCC(=O)NC(Cc3c[nH]c4ccccc34)C(=O)NCc3cccc(c3)C(=O)N2C1 (stereo not drawn) [X W B5 D5 Acid 91]
- fraction fluorescent probe displaced, Screen (Acid 91): 0.08
- fraction fluorescent probe displaced, Replicate (Acid 91, replicate): 0.17

SMILES: O=C1N[C@@H](Cc2ccccc2)C(=O)NC2(CCN(C(=O)/C=C/c3ccccc3)CC2)C(=O)NCCSSCCC(=O)N2CCC[C@H]1C2 [X B4 F D6 + Acid 91]
- fraction fluorescent probe displaced (crude reaction of macrocycle scaffold with Acid 91, (initial screen)): 0.08
- fraction fluorescent probe displaced (crude reaction of macrocycle scaffold with Acid 91, replicate): 0.0168

SMILES: O=C(NC[C@@H]1NC(=O)[C@@H]2CCCN2C(=O)CCSSCCNC(=O)[C@H](Cc2ccccc2)NC1=O)c1ccco1 [X-B1-D3-F + A16] ([Mpa]P[Dap](2Furoyl)F-Cysteamide; disulfide 1-C)
- fraction fluorescent probe displaced [1]: -0.04895

SMILES: O=C(/C=C/c1ccccc1)NC[C@@H]1NC(=O)[C@H](Cc2c[nH]c3ccccc23)NC(=O)CCSSCCNC(=O)[C@H]2CCCN(C2)C1=O [X W D3 B4 Acid 91]
- fraction fluorescent probe displaced, Screen (Acid 91): 0.35
- fraction fluorescent probe displaced, Replicate (Acid 91, replicate): 0.07

SMILES: O=C1NC(Cc2c[nH]c3ccccc23)C(=O)N2CCN(C(=O)c3ccc(Cl)s3)CC2C(=O)NCCSSCCC(=O)N2CCCC12 (stereo not drawn) [X B1 W D7 Acid 14]
- fraction fluorescent probe displaced, Screen (Acid 14): 0.08
- fraction fluorescent probe displaced, Replicate (Acid 14, replicate): 0.15

SMILES: O=C1CCSSCCNC(=O)C2CN(C(=O)C=Cc3ccccc3)CCN2C(=O)C(Cc2ccccc2)NC(=O)CCN1 (stereo not drawn) [X B2 F D7 Acid 91]
- fraction fluorescent probe displaced, Screen (Acid 91): 0.03
- fraction fluorescent probe displaced, Replicate (Acid 91, replicate): -0.00827

SMILES: O=C(NC[C@@H]1NC(=O)[C@@H]2CCCN2C(=O)CCSSCCNC(=O)[C@H](Cc2ccccc2)NC1=O)c1ccc2[nH]cnc2c1 [X-B1-D3-F + A6] ([Mpa]P[Dap](X13)F-Cysteamide; disulfide 1-C)
- fraction fluorescent probe displaced [1]: -0.003922

SMILES: O=C1NCCSSCCC(=O)N2CCC[C@H]2C(=O)NC2(CCN(C(=O)/C=C/c3ccccc3)CC2)C(=O)N[C@H]1Cc1c[nH]c2ccccc12 [X B1 D6 W Acid 91] ([Mpa]P[Api](X1)W-Cysteamide; disulfide 1-C)
- fraction fluorescent probe displaced, Screen (Acid 91): -0.08
- fraction fluorescent probe displaced, Replicate (Acid 91, replicate): -0.08

From paper PMC9250534, “Synthesis and direct assay of large macrocycle diversities by combinatorial late-stage modification at picomole scale” (Nature Communications, 2022)
